Measurements taken from the OligoGym collection.
Only the 19 paired bases of each siRNA are shown; overhangs and chemistry are not given here.

Experiments:
[1] = target: LMNA; assay: five studies, different assays; conditions: siRNA
[2] = target: PPIB; assay: five studies, different assays; conditions: siRNA
Further: test concentration or dose not given here.

Row | Substance | target inhibition [1] [%] | target inhibition [2] [%]
1 | sense AAGAAGGAGCUGGAGAAGA / antisense UCUUCUCCAGCUCCUUCUU | 87 | 
2 | sense AAGGAGCUGGAGAAGACUU / antisense AAGUCUUCUCCAGCUCCUU | 91 | 
3 | sense AGAAGGAGCUGGAGAAGAC / antisense GUCUUCUCCAGCUCCUUCU | 96 | 
4 | sense AGCAGUAUAAGAAGGAGCU / antisense AGCUCCUUCUUAUACUGCU | 84 | 
5 | sense AGCGCAAACUGGAGUCCAC / antisense GUGGACUCCAGUUUGCGCU | 98 | 
6 | sense AGCUGGAGAAGACUUAUUC / antisense GAAUAAGUCUUCUCCAGCU | 96 | 
7 | sense AGGAGCUGGAGAAGACUUA / antisense UAAGUCUUCUCCAGCUCCU | 98 | 
8 | sense AGUAUAAGAAGGAGCUGGA / antisense UCCAGCUCCUUCUUAUACU | 95 | 
9 | sense AUAAGAAGGAGCUGGAGAA / antisense UUCUCCAGCUCCUUCUUAU | 96 | 
10 | sense CAAGUCCAAUGAGGACCAG / antisense CUGGUCCUCAUUGGACUUG | 79 | 
11 | sense CAGUAUAAGAAGGAGCUGG / antisense CCAGCUCCUUCUUAUACUG | 95 | 
12 | sense CCCGCUCCUACCUCCUGGG / antisense CCCAGGAGGUAGGAGCGGG | 71 | 
13 | sense CGGUGAGCGCUUCCCCGAU / antisense AUCGGGGAAGCGCUCACCG |  | 80.2
14 | sense CGUGUAAUCAAGGACUUCA / antisense UGAAGUCCUUGAUUACACG |  | 88.8
15 | sense CUACAAAAACAGCAAAUUC / antisense GAAUUUGCUGUUUUUGUAG |  | 71.2
16 | sense CUACAGGAGAGAAAGGAUU / antisense AAUCCUUUCUCUCCUGUAG |  | 93.9
17 | sense CUGCUCUCAGUGAGAAGCG / antisense CGCUUCUCACUGAGAGCAG | 88 | 
18 | sense CUGGACUUCCAGAAGAACA / antisense UGUUCUUCUGGAAGUCCAG | 98 | 
19 | sense CUGGAGAAGACUUAUUCUG / antisense CAGAAUAAGUCUUCUCCAG | 98 | 
20 | sense CUUCAAACUGAAGCACUAC / antisense GUAGUGCUUCAGUUUGAAG |  | 73.1
21 | sense CUUCAUGAUCCAGGGCGGA / antisense UCCGCCCUGGAUCAUGAAG |  | 88.7
22 | sense GAAAGGAUUUGGCUACAAA / antisense UUUGUAGCCAAAUCCUUUC |  | 94.2
23 | sense GAAGGAGCUGGAGAAGACU / antisense AGUCUUCUCCAGCUCCUUC | 93 | 

Row | Substance | target inhibition [1] [%] | target inhibition [2] [%]
24 | sense GAAGUGGCCAUGCGCAAGC / antisense GCUUGCGCAUGGCCACUUC | 70 | 
25 | sense GACUUCAUGAUCCAGGGCG / antisense CGCCCUGGAUCAUGAAGUC |  | 51.2
26 | sense GAGAAAGGAUUUGGCUACA / antisense UGUAGCCAAAUCCUUUCUC |  | 92.3
27 | sense GAGAAGACUUAUUCUGCCA / antisense UGGCAGAAUAAGUCUUCUC | 97 | 
28 | sense GAGAGAAAGGAUUUGGCUA / antisense UAGCCAAAUCCUUUCUCUC |  | 93.4
29 | sense GAGAUGGCACAGGAGGAAA / antisense UUUCCUCCUGUGCCAUCUC |  | 70.5
30 | sense GAGCGCUUCCCCGAUGAGA / antisense UCUCAUCGGGGAAGCGCUC |  | 86.5
31 | sense GAGCUGGAGAAGACUUAUU / antisense AAUAAGUCUUCUCCAGCUC | 96 | 
32 | sense GAGGAAAGAGCAUCUACGG / antisense CCGUAGAUGCUCUUUCCUC |  | 58.4
33 | sense GAGGUGGUCAGCCGCGAGG / antisense CCUCGCGGCUGACCACCUC | 80 | 
34 | sense GAUCCAGGGCGGAGACUUC / antisense GAAGUCUCCGCCCUGGAUC |  | 92.7
35 | sense GAUGAGAACUUCAAACUGA / antisense UCAGUUUGAAGUUCUCAUC |  | 89.7
36 | sense GAUGGCACAGGAGGAAAGA / antisense UCUUUCCUCCUGUGCCAUC |  | 84.9
37 | sense GCACAGGAGGAAAGAGCAU / antisense AUGCUCUUUCCUCCUGUGC |  | 90.8
38 | sense GCAGUAUAAGAAGGAGCUG / antisense CAGCUCCUUCUUAUACUGC | 82 | 
39 | sense GCCAAAGAAAAAUAACCCU / antisense AGGGUUAUUUUUCUUUGGC | 96 | 
40 | sense GCCUGCGUACGGCUCUCAU / antisense AUGAGAGCCGUACGCAGGC | 97 | 
41 | sense GCGCUUCCCCGAUGAGAAC / antisense GUUCUCAUCGGGGAAGCGC |  | 92.7
42 | sense GCGGAGACUUCACCAGGGG / antisense CCCCUGGUGAAGUCUCCGC |  | 76.6
43 | sense GCUGGACAAUGCCAGGCAG / antisense CUGCCUGGCAUUGUCCAGC | 84 | 
44 | sense GCUGGAGAAGACUUAUUCU / antisense AGAAUAAGUCUUCUCCAGC | 96 | 
45 | sense GCUGGCCCUGGACAUGGAG / antisense CUCCAUGUCCAGGGCCAGC | 79 | 
46 | sense GCUUCCCCGAUGAGAACUU / antisense AAGUUCUCAUCGGGGAAGC |  | 67.8

Row | Substance | target inhibition [1] [%] | target inhibition [2] [%]
47 | sense GCUUCGAGACCUGGAGGAC / antisense GUCCUCCAGGUCUCGAAGC | 96 | 
48 | sense GGAAAGAGCAUCUACGGUG / antisense CACCGUAGAUGCUCUUUCC |  | 93.3
49 | sense GGACCUGCAGGAGCUCAAU / antisense AUUGAGCUCCUGCAGGUCC | 45 | 
50 | sense GGAGAAGACUUAUUCUGCC / antisense GGCAGAAUAAGUCUUCUCC | 95 | 
51 | sense GGAGACUUCACCAGGGGAG / antisense CUCCCCUGGUGAAGUCUCC |  | 80.9
52 | sense GGAGCUGGAGAAGACUUAU / antisense AUAAGUCUUCUCCAGCUCC | 95 | 
53 | sense GGAGGACCUGCAGGAGCUC / antisense GAGCUCCUGCAGGUCCUCC | 83 | 
54 | sense GGAUAAUUUUGUGGCCUUA / antisense UAAGGCCACAAAAUUAUCC |  | 83.9
55 | sense GGAUUUGGCUACAAAAACA / antisense UGUUUUUGUAGCCAAAUCC |  | 83.5
56 | sense GGCACAGAACACCUGGGGC / antisense GCCCCAGGUGUUCUGUGCC | 86 | 
57 | sense GGCAUCUGCCAGCGGCUCA / antisense UGAGCCGCUGGCAGAUGCC | 92 | 
58 | sense GGCCUUAGCUACAGGAGAG / antisense CUCUCCUGUAGCUAAGGCC |  | 94.6
59 | sense GGCUACAAAAACAGCAAAU / antisense AUUUGCUGUUUUUGUAGCC |  | 77.4
60 | sense GGGAGAUGGCACAGGAGGA / antisense UCCUCCUGUGCCAUCUCCC |  | 80.4
61 | sense GGGCGGAGACUUCACCAGG / antisense CCUGGUGAAGUCUCCGCCC |  | 89
62 | sense GGUGGUGACGAUCUGGGCU / antisense AGCCCAGAUCGUCACCACC | 92 | 
63 | sense GUAUAAGAAGGAGCUGGAG / antisense CUCCAGCUCCUUCUUAUAC | 96 | 
64 | sense GUGAGCGCUUCCCCGAUGA / antisense UCAUCGGGGAAGCGCUCAC |  | 83.9
65 | sense GUGGAUAAUUUUGUGGCCU / antisense AGGCCACAAAAUUAUCCAC |  | 55
66 | sense GUGGCCAUGCGCAAGCUGG / antisense CCAGCUUGCGCAUGGCCAC | 74 | 
67 | sense GUGGCCUUAGCUACAGGAG / antisense CUCCUGUAGCUAAGGCCAC |  | 60.3
68 | sense GUUAUUUUCUACAGUGGUU / antisense AACCACUGUAGAAAAUAAC | 98 | 
69 | sense GUUCCAAAAACAGUGGAUA / antisense UAUCCACUGUUUUUGGAAC |  | 88.1

Row | Substance | target inhibition [1] [%] | target inhibition [2] [%]
70 | sense UAACCCUUUGGUUUUUUUC / antisense GAAAAAAACCAAAGGGUUA | 52 | 
71 | sense UAAGAAGGAGCUGGAGAAG / antisense CUUCUCCAGCUCCUUCUUA | 67 | 
72 | sense UAAUCAAGGACUUCAUGAU / antisense AUCAUGAAGUCCUUGAUUA |  | 87.9
73 | sense UACGGUGAGCGCUUCCCCG / antisense CGGGGAAGCGCUCACCGUA |  | -9.9
74 | sense UAUAAGAAGGAGCUGGAGA / antisense UCUCCAGCUCCUUCUUAUA | 90 | 
75 | sense UCAAACUGAAGCACUACGG / antisense CCGUAGUGCUUCAGUUUGA |  | 18.1
76 | sense UCAUGAUCCAGGGCGGAGA / antisense UCUCCGCCCUGGAUCAUGA |  | 92.8
77 | sense UCCAAAAACAGUGGAUAAU / antisense AUUAUCCACUGUUUUUGGA |  | 75.3
78 | sense UCCAGGGCGGAGACUUCAC / antisense GUGAAGUCUCCGCCCUGGA |  | 41.8
79 | sense UCUACGGUGAGCGCUUCCC / antisense GGGAAGCGCUCACCGUAGA |  | 2.8
80 | sense UGAGAACUUCAAACUGAAG / antisense CUUCAGUUUGAAGUUCUCA |  | 41.7
81 | sense UGGCACAGGAGGAAAGAGC / antisense GCUCUUUCCUCCUGUGCCA |  | 55.9
82 | sense UGUAAUCAAGGACUUCAUG / antisense CAUGAAGUCCUUGAUUACA |  | 63.9
83 | sense UUAGCUACAGGAGAGAAAG / antisense CUUUCUCUCCUGUAGCUAA |  | 30.7
84 | sense UUCACCAGGGGAGAUGGCA / antisense UGCCAUCUCCCCUGGUGAA |  | 17.6
85 | sense UUCCAUCGUGUAAUCAAGG / antisense CCUUGAUUACACGAUGGAA |  | 45.9
86 | sense UUCCCCGAUGAGAACUUCA / antisense UGAAGUUCUCAUCGGGGAA |  | 83.8
87 | sense UUGGCUACAAAAACAGCAA / antisense UUGCUGUUUUUGUAGCCAA |  | 68
88 | sense UUGUGGCCUUAGCUACAGG / antisense CCUGUAGCUAAGGCCACAA |  | 16
89 | sense UUUUGUGGCCUUAGCUACA / antisense UGUAGCUAAGGCCACAAAA |  | 52
